# Laboratory results published in patent US20070049593A1 (priority 2004, published 2007).
# Counter-ions that a name gives are not always drawn.
# Target: T1, HCV polymerase (Hepatitis C virus genotype 1b, UniProt P26663)
# T1 construct: a region encoding NS5B (J Virol 1991 March, 65(3), 1105-13, 544 amino acids after deletion of 47 amino acids on the C-terminal); 6xHis (C); made in house; host or cells: Escherichia coli
# Assay: biochemical
# Set-up: species or system HCV BK strain
# Conditions: not given
# Method in brief: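 His-tagged NS5B (BK strain, 47-aa C-terminal deletion, E. coli-expressed) at 0.5 μg/ml copied 5 μg/ml run-off RNA bearing the HCV 3′ UTR with 2 μM UTP plus [3H]UTP, 50 μM ATP/GTP, in pH 7.5 Tris with 5 mM MgCl2, 25 °C, 90 min. TCA-precipitated RNA was counted and IC50 calculated.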
# T1 sequence (P26663 2420-2963): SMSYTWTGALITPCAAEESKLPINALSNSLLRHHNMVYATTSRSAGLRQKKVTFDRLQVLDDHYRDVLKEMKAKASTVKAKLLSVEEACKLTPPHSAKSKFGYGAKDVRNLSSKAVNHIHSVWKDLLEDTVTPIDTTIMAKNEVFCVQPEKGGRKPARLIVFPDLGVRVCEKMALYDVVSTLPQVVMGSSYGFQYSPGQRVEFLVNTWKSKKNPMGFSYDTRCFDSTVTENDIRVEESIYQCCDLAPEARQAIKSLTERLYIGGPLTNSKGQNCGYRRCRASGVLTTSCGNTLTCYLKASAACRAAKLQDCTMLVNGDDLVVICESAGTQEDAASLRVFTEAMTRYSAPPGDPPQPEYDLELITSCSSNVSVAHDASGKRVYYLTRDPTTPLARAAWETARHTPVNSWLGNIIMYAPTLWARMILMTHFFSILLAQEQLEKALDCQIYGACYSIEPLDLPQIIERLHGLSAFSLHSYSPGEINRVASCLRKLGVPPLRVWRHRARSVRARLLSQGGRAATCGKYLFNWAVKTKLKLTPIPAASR
row,Compound,IC50 [nM]
1,"CC(=O)N1CCC(N2CCn3c(c(C4CCCCC4)c4ccc(C(=O)O)cc43)-c3ccc(C)cc32)CC1 [Example 1-563, 5-(1-acetylpiperidin-4-yl)-13-cyclohexyl-3-methyl-6,7-dihydro-5H-benzo[5,6][1,4]diazepino[7,1-a]indole-10-carboxylic acid]",< 100
2,"Cc1ccc2c(c1)N(CCN1CCCCC1C)CCn1c-2c(C2CCCCC2)c2ccc(C(=O)O)cc21 (centres unmarked) [Example 1-258, 13-cyclohexyl-3-methyl-5-[2-(2-methylpiperidin-1-yl)ethyl]-6,7-dihydro-5H-benzo[5,6][1,4]diazepino[7,1-a]indole-10-carboxylic acid dihydrochloride]",< 100
3,"O=C(O)c1ccc2c(C3CCCCC3)c3n(c2c1)CCN(CCCN1CCCCCC1)c1cc(Cl)ccc1-3 [Example 1-245, 5-[3-(azepan-1-yl)propyl]-3-chloro-13-cyclohexyl-6,7-dihydro-5H-benzo[5,6][1,4]diazepino[7,1-a]indole-10-carboxylic acid dihydrochloride]",< 100
4,"CN(C)CCN(C)c1cccc2c1OCCn1c-2c(C2CCCCC2)c2ccc(C(=O)O)cc21 [Example 2-162, 12-cyclohexyl-4-[N-(2-dimethylaminoethyl)-N-methylamino]-6,7-dihydro-5-oxa-7a-azadibenzo[a,e]azulene-9-carboxylic acid dihydrochloride]",< 100
5,"O=C(O)c1ccc2c(C3CCCCC3)c3n(c2c1)CCN(CCN1CCCCCC1)c1ccccc1-3 [Example 1-83, 5-[2-(azepan-1-yl)ethyl]-13-cyclohexyl-6,7-dihydro-5H-benzo[5,6][1,4]diazepino[7,1-a]indole-10-carboxylic acid dihydrochloride]",< 100
6,"COc1ccc2c(c1)OCCn1c-2c(C2CCCCC2)c2ccc(C(=O)N[C@@H](Cc3ccc(O)cc3)C(=O)NCCN(C)C)cc21 [Example 2-389, N—[(S)-1-(2-dimethylaminoethylcarbamoyl)-2-(4-hydroxyphenyl)ethyl]-12-cyclohexyl-3-methoxy-6,7-dihydro-5-oxa-7a-azadibenzo[a,e]azulene-9-carboxamide]",< 100
7,"CCCC1CCCN(CCN2CCn3c(c(C4CCCCC4)c4ccc(C(=O)O)cc43)-c3ccccc32)C1 (centres unmarked) [Example 1-331, 13-cyclohexyl-5-[2-(3-propylpiperidin-1-yl)ethyl]-6,7-dihydro-5H-benzo[5,6][1,4]diazepino[7,1-a]indole-10-carboxylic acid dihydrochloride]",< 100
8,"COCC1CCCN(CCN2CCn3c(c(C4CCCCC4)c4ccc(C(=O)O)cc43)-c3ccc(C(C)C)cc32)C1 (centres unmarked) [Example 1-367, 13-cyclohexyl-3-isopropyl-5-[2-(3-methoxymethylpiperidin-1-yl)ethyl]-6,7-dihydro-5H-benzo[5,6][1,4]diazepino[7,1-a]indole-10-carboxylic acid dihydrochloride]",< 100
9,"CC(C)COc1ccc2c(c1)N(CCN1CCCC(C)C1)CCn1c-2c(C2CCCCC2)c2ccc(C(=O)O)cc21 (centres unmarked) [Example 1-375, 13-cyclohexyl-3-isobutoxy-5-[2-(3-methylpiperidin-1-yl)ethyl]-6,7-dihydro-5H-benzo[5,6][1,4]diazepino[7,1-a]indole-10-carboxylic acid dihydrochloride]",< 100
10,"COc1ccc2c(c1)OCCn1c-2c(C2CCCCC2)c2ccc(C(=O)NC3(c4nc5cc(C(C)(C)O)c(OC)cc5[nH]4)CCC3)cc21 [Example 2-447, N-{1-[5-(1-hydroxy-1-methylethyl)-6-methoxy-1H-benzimidazol-2-yl]cyclobutyl}-12-cyclohexyl-3-methoxy-6,7-dihydro-5-oxa-7a-azadibenzo[a,e]azulene-9-carboxamide]",< 100
11,"O=C(O)c1ccc2c(C3CCCCC3)c3n(c2c1)CCOc1cc(OCc2ccc(N4CCCC4=O)cc2N2CCOCC2)ccc1-3 [Example 2-9, 12-cyclohexyl-3-[2-(morpholin-4-yl)-4-(2-oxopyrrolidin-1-yl)benzyloxy]-6,7-dihydro-5-oxa-7a-azadibenzo[a,e]azulene-9-carboxylic acid]",< 100
12,"CN(C)C(=O)CN1CCn2c(c(C3CCCCC3)c3ccc(C(=O)O)cc32)-c2ccccc21 [Example 1-21, 13-cyclohexyl-5-dimethylcarbamoylmethyl-6,7-dihydro-5H-benzo[5,6][1,4]diazepino[7,1-a]indole-10-carboxylic acid]",< 100
13,"CCOc1ccc2c(c1)N(CCN1CCC(CCOC)CC1)CCn1c-2c(C2CCCCC2)c2ccc(C(=O)O)cc21 [Example 1-501, 13-cyclohexyl-3-ethoxy-5-{2-[4-(2-methoxyethyl)piperidin-1-yl]ethyl}-6,7-dihydro-5H-benzo[5,6][1,4]diazepino[7,1-a]indole-10-carboxylic acid dihydrochloride]",< 100
14,"CCC1CCCN(CCN2CCn3c(c(C4CCCCC4)c4ccc(C(=O)O)cc43)-c3ccc(C)cc32)C1 (centres unmarked) [Example 1-272, 13-cyclohexyl-5-[2-(3-ethylpiperidin-1-yl)ethyl]-3-methyl-6,7-dihydro-5H-benzo[5,6][1,4]diazepino[7,1-a]indole-10-carboxylic acid dihydrochloride]",< 100
15,"Cc1ccc2c(c1)N(CCCN1CCCCC1)CCn1c-2c(C2CCCCC2)c2ccc(C(=O)O)cc21 [Example 1-298, 13-cyclohexyl-3-methyl-5-[3-(piperidin-1-yl)propyl]-6,7-dihydro-5H-benzo[5,6][1,4]diazepino[7,1-a]indole-10-carboxylic acid dihydrochloride]",< 100
16,"O=C(O)c1ccc2c(C3CCCCC3)c3n(c2c1)CCN(CC(=O)N1CCCOCC1)c1ccccc1-3 [Example 1-49, 13-cyclohexyl-5-[2-(1,4-oxazepan-4-yl)-2-oxoethyl]-6,7-dihydro-5H-benzo[5,6][1,4]diazepino[7,1-a]indole-10-carboxylic acid monohydrochloride]",< 100
17,"COc1ccc2c(c1)OCCn1c-2c(C2CCCCC2)c2ccc(C(=O)N[C@@H](Cc3ccc(O)cc3)C(=O)OC(C)(C)C)cc21 [Example 2-452, tert-butyl (S)-2-[(12-cyclohexyl-3-methoxy-6,7-dihydro-5-oxa-7a-azadibenzo[a,e]azulene-9-carbonyl)amino]-3-(4-hydroxyphenyl)propionate]",< 100
18,"CN(C)CCN(C)CCN1CCn2c(c(C3CCCCC3)c3ccc(C(=O)O)cc32)-c2ccccc21 [Example 1-223, 13-cyclohexyl-5-{2-[N-(2-dimethylaminoethyl)-N-methylamino]ethyl}-6,7-dihydro-5H-benzo[5,6][1,4]diazepino[7,1-a]indole-10-carboxylic acid trihydrochloride]",< 100
19,"CN1CCCCC1CCN1CCn2c(c(C3CCCCC3)c3ccc(C(=O)O)cc32)-c2ccc(Cl)cc21 (centres unmarked) [Example 1-312, 3-chloro-13-cyclohexyl-5-[2-(1-methylpiperidin-2-yl)ethyl]-6,7-dihydro-5H-benzo[5,6][1,4]diazepino[7,1-a]indole-10-carboxylic acid dihydrochloride]",< 100

# Same assay, conditions: 25° C., 90 min; [5,6-3H]UTP incorporation into RNA; read-out: HCV polymerase inhibitory activity IC50
row,Compound,IC50 [nM]
1,"COc1ccc2c(c1)OCCn1c-2c(C2CCCCC2)c2ccc(C(=O)N[C@@H](Cc3c[nH]c4ccc(O)cc34)c3csc(C)n3)cc21 [Example 2-385, [(S)-2-(5-hydroxy-1H-indol-3-yl)-1-(2-methylthiazol-4-yl)ethyl]-12-cyclohexyl-3-methoxy-6,7-dihydro-5-oxa-7a-azadibenzo[a,e]azulene-9-carboxamide]",< 100
